Measured values as given in US12383608B2, “WT1 helper peptides and combinations of WT1 helper peptide and conjugate of cancer antigen peptides” (Sumitomo Pharma Co., Ltd., priority 2016, dated 2025).

System: HLA-A*02:01 transgenic mouse (C57BL/6CrHLA-A2.1DR1)
Assay: In vivo CTL induction in HLA-A*02:01 transgenic mouse (IFNγ ELISPOT assay on splenocytes)
Conditions: Montanide ISA 51 VG, intradermal; for Effect of the cocktail vaccine comprising the peptide on the CTL induction by the compound of formula (4): cocktail vaccine: helper peptide (170-315 μg per site) + compound of formula (4) (250 μg per site), molar ratio 1:1.13-1.15 or equimolar, compared with compound of formula (4) alone; for CTL induction by the cocktail vaccine comprising the peptide in addition to the compound of formula (4) (increase in number of CTLs): cocktail vaccine: helper peptide + compound of formula (4), compared with the vaccine comprising the compound of formula (4)
Protocol: The HLA-A*02:01 transgenic mouse (C57BL/6CrHLA-A2.1DR1) lacks mouse MHC, and instead expresses a chimeric IILA of a human MHC, HLA-A*02:01 with a mouse MHC, H-2Db, and HLA-DRB1*01:01.
The solution was diluted with water for injection to a concentration of 10 mg/ml, and then converted to an emulsion by addition of an equal volume of Montanide ISA 51 VG. […] One week after the administration, the mice were sacrificed with CO2 gas. Splenocytes were harvested from spleens removed from the mice. For detecting IFNγ-producing splenocytes, an IFNγ ELISPOT assay kit was used. In particular, an ELISPOT plate was treated with an anti-mouse-IFNγ antibody on the day before preparation of the splenocyte samples. On the next day, the plate was blocked by treatment with an RPMI 1640 medium with 10% FBS. To the blocked ELISPOT plate, the splenocyte samples from the HLA-A*02:01 transgenic mice were added at 1.25×10^5 cells/well. For in vitro stimulation of the cells, the peptide of SEQ ID NO: 15 was dissolved in DMSO at a concentration of 40 mg/ml, diluted with RPMI 1640 with 10% FBS to 40 μg/ml, and added to the splenocyte-containing wells at a final concentration of 10 μg/ml. The plate was incubated for 17 hours at 37° C. under an atmosphere of 5% CO2. Then, after removal of the culture medium from the wells, the ELISPOT plate was subjected to treatment for cell staining in accordance with the manufacturer's protocol. Stained spots were counted on ImmunoSpot Analyzer (C.T.L.).
The scale on the vertical axis of the graph of FIG. 1 indicates the number of cells (CTLs) which produced IFNγ in response to the stimulation with the peptide of SEQ ID NO: 15. The compound and the peptide administered to the mice are described under the bars. […] Therefore, effect of each vaccine in CTL induction is known from the difference in cell count between the black bar and the white bar. When no IFNγ is produced by cells in the absence of the stimulation with SEQ ID NO: 15, a white bar cannot have a height.
The solution was diluted with water for injection to a concentration of 10 mg/ml, and then converted to an emulsion by addition of an equal volume of Montanide ISA 51 VC.
(§1) The solution was diluted with water for injection to a concentration of 10 mg/ml, and then converted to an emulsion by addition of an equal volume of Montanide ISA 51 VG.
as §1, §1, §1, §1, §1, §1, §1, §1, §1

In the case of “CNKRYFKLSHLQMHSRK [SEQ ID NO: 7, reference compound]”, the “Effect of the cocktail vaccine comprising the peptide on the CTL induction by the compound of formula (4)” value (“Effect” below) is reported as “enhanced” and the “CTL induction by the cocktail vaccine comprising the peptide in addition to the compound of formula (4) (increase in number of CTLs)” value (“CTL induction … (increase in number of CTLs)” below) is reported as “highly effective in CTL induction”.
For RYFKLSHLQMHSRK [SEQ ID NO: 39], the “Effect” value was “enhanced” and the “CTL induction … (increase in number of CTLs)” value was “highly effective in CTL induction”.
For AYPGCNKRYFKLSHLQMHSRK [SEQ ID NO: 44], the “Effect” value was “enhanced” and the “CTL induction … (increase in number of CTLs)” value was “highly effective in CTL induction”.
In the case of RYFKLSHLQMHSRKHTGE [SEQ ID NO: 49], the “Effect” value is reported as “enhanced” and the “CTL induction … (increase in number of CTLs)” value is reported as “highly effective in CTL induction”.
For GCNKRYFKLSHLQMHSRK [SEQ ID NO: 6], the “Effect” value was “enhanced” and the “CTL induction … (increase in number of CTLs)” value was “highly effective in CTL induction”.
For GCNKRYFKLSHL [SEQ ID NO: 46], the “Effect” value was “enhanced” and the “CTL induction … (increase in number of CTLs)” value was “highly effective in CTL induction”.
RYFKLSHLQMH [SEQ ID NO: 45] was tested, and the “Effect” value was “enhanced” and the “CTL induction … (increase in number of CTLs)” value was “highly effective in CTL induction”.
In the case of YFKLSHLQMHSRKHT [SEQ ID NO: 12], the “Effect” value is reported as “enhanced” and the “CTL induction … (increase in number of CTLs)” value is reported as “highly effective in CTL induction”.
NKRYFKLSHLQMHSRK [SEQ ID NO: 8] was tested, and the “Effect” value was “enhanced” and the “CTL induction … (increase in number of CTLs)” value was “highly effective in CTL induction”.
For RYFKLSHLQMHSRKH [SEQ ID NO: 11], the “Effect” value was “enhanced” and the “CTL induction … (increase in number of CTLs)” value was “highly effective in CTL induction”.
For “KRYFKLSHLQMHSRKH [SEQ ID NO: 10, reference compound]”, the “Effect” value was “enhanced” and the “CTL induction … (increase in number of CTLs)” value was “highly effective in CTL induction”.
With KLSHLQMHSRKHTGE [SEQ ID NO: 14] the “Effect” value was “enhanced” and the “CTL induction … (increase in number of CTLs)” value was “highly effective in CTL induction”.
With “PGCNKRYFKLSHLQMHSRKHTG [SEQ ID NO: 4, reference compound]” the “Effect” value was “enhanced” and the “CTL induction … (increase in number of CTLs)” value was “highly effective in CTL induction”.
For YPGCNKRYFKLSHLQ [SEQ ID NO: 3], the “Effect” value was “enhanced” and the “CTL induction … (increase in number of CTLs)” value was “highly effective in CTL induction”.
With RYFKLSHLQMHSRKHT [SEQ ID NO: 48] the “Effect” value was “enhanced” and the “CTL induction … (increase in number of CTLs)” value was “highly effective in CTL induction”.
With KRYFKLSHLQMHSRK [SEQ ID NO: 9] the “Effect” value was “enhanced” and the “CTL induction … (increase in number of CTLs)” value was “highly effective in CTL induction”.
For PGCNKRYFKLSHLQMHSRK [SEQ ID NO: 5], the “Effect” value was “enhanced” and the “CTL induction … (increase in number of CTLs)” value was “highly effective in CTL induction”.
With AYPGCNKRYFKLSHLQMH [SEQ ID NO: 43] the “Effect” value was “enhanced” and the “CTL induction … (increase in number of CTLs)” value was “highly effective in CTL induction”.
With FKLSHLQMHSRKHTG [SEQ ID NO: 13] the “Effect” value was “enhanced” and the “CTL induction … (increase in number of CTLs)” value was “highly effective in CTL induction”.
For AYPGCNKRYFKLSHL [SEQ ID NO: 2], the “Effect” value was “enhanced” and the “CTL induction … (increase in number of CTLs)” value was “highly effective in CTL induction”.
